Test results: patent US20120238549A1, “Nuclear Hormone Receptor Modulators” (ABBOTT LABORATORIES, priority 2011, published 2012)

The compounds below were run against T1, Glucocorticoid Receptor (GR) (Homo sapiens, UniProt P04150) (assay: GR Florescence Polarization Assay (PolarScreen Glucocorticoid Receptor Competitor Assay, Red)). Settings: Fluorescense polarization binding ranges; competition with fluorescent glucocorticoid, incubated overnight at 4° C.
T1 construct: purchased Invitrogen P2893
T1 sequence (P04150 1-777): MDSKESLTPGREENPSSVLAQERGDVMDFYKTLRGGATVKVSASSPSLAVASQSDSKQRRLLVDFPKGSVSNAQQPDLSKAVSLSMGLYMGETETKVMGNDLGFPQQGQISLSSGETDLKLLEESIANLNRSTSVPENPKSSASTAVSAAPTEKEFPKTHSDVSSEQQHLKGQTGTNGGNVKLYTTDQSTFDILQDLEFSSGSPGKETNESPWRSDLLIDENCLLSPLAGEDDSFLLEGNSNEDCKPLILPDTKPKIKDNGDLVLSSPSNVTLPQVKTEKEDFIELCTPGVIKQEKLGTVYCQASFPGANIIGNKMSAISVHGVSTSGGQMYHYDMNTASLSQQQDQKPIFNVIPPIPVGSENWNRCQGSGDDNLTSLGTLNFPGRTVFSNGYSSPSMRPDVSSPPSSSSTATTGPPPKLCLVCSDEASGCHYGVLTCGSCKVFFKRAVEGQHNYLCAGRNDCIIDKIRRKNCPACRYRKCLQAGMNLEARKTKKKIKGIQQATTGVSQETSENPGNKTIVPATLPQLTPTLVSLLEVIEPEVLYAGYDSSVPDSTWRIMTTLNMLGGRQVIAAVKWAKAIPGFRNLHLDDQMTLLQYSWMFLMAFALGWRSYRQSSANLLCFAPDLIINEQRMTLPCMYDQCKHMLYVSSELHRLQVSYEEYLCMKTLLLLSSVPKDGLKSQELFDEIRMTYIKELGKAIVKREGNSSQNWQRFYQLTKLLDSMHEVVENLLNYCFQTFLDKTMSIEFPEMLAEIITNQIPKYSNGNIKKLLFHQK
Procedure: GR Florescence Polarization Assay Florescence polarization assays were carried out using the PolarScreen™ Glucocorticoid Receptor Competitor Assay, Red from Invitrogen (P2893). The assay buffer was prepared according to the manufacturer's protocol and used to dilute the fluorescent glucocorticoid and GR. Compounds were prepared and serial diluted 1:4 in DMSO. Compound, fluorescent glucocorticoid and GR were added in a final volume of 20 μL and incubated overnight at 4° C. Fluorescent polarization was measured on the Perkinelmer Envision®.

SMILES | IC50 [nM]
Oc1ccc2c(c1)CCC[C@H]1C[C@@](O)(c3ccccc3)[C@H](O)C[C@@]21Cc1ccccc1 (racemic) [Example 42, (2R,3R,4aS,11bR)-11b-Benzyl-3-phenyl-2,3,4,4a,5,6,7,11b-octahydro-1H-dibenzo[a,c]cycloheptene-2,3,9-triol compound with (2S,3S,4aR,11bS)-11b-benzyl-3-phenyl-2,3,4,4a,5,6,7,11b-octahydro-1H-dibenzo[a,c]cycloheptene-2,3,9-triol] | 100 to 1000
Cc1ncccc1NC(=O)c1ccc2c(c1)CCC[C@H]1C[C@@](O)(CC(C)C)CC[C@@]21CC(F)(F)F (racemic) [Example 63, (7aS,9S,11aS)-9-Hydroxy-9-isobutyl-11a-(2,2,2-trifluoro-ethyl)-6,7,7a,8,9,10,11,11a-octahydro-5H-dibenzo[a,c]cycloheptene-3-carboxylic acid (2-methyl-pyridin-3-yl)-amide; compound with (7aR,9R,11aR)-9-hydroxy-9-isobutyl-11a-(2,2,2-trifluoro-ethyl)-6,7,7a,8,9,10,11,11a-octahydro-5H-dibenzo[a,c]cycloheptene-3-carboxylic acid (2-methyl-pyridin-3-yl)-amide] | < 100
CC[C@@]12CC[C@](O)(CC#N)C[C@@H]1CCCc1cc(C(=O)Nc3cccnc3C)ccc12 (racemic) [Example 64, (7aS,9R,11aR)-9-Cyanomethyl-11a-ethyl-9-hydroxy-6,7,7a,8,9,10,11,11a-octahydro-5H-dibenzo[a,c]cycloheptene-3-carboxylic acid (2-methyl-pyridin-3-yl)-amide; compound with (7aR,9S,11aS)-9-cyanomethyl-11a-ethyl-9-hydroxy-6,7,7a,8,9,10,11,11a-octahydro-5H-dibenzo[a,c]cyclo heptene-3-carboxylic acid (2-methyl-pyridin-3-yl)-amide] | 100 to 1000
CC[C@@]12CC[C@](O)(COCC(F)(F)F)C[C@@H]1CCCc1cc(C(=O)Nc3cccnc3C)ccc12 (racemic) [Example 92, (7aS,9R,11aR)-11a-ethyl-9-hydroxy-9-(2,2,2-trifluoro-ethoxymethyl)-6,7,7a,8,9,10,11,11a-octahydro-5H-dibenzo[a,c]cycloheptene-3-carboxylic acid (2-methyl-pyridin-3-yl)-amide: compound with (7aR,9S,11aS)-11a-ethyl-9-hydroxy-9-(2,2,2-trifluoro-ethoxymethyl)-6,7,7a,8,9,10,11,11a-octahydro-5H-dibenzo[a,c]cycloheptene-3-carboxylic acid (2-methyl-pyridin-3-yl)-amide] | < 100
Cc1ncccc1NC(=O)c1ccc2c(c1)CCC[C@H]1C[C@@](O)(COC(C)C)CC[C@@]21Cc1ccccc1 (racemic) [Example 97] | < 100
Cc1ncccc1NC(=O)c1ccc2c(c1)CCC[C@H]1C[C@@](O)(COC3CCOCC3)CC[C@@]21Cc1ccccc1 (racemic) [Example 102] | < 100
Cc1ncccc1NC(=O)c1ccc2c(c1)CCC[C@H]1C[C@@](O)(CO)CC[C@@]21Cc1ccccc1 (racemic) [Example 104] | 100 to 1000
CCC[C@@]1(O)CC[C@@]2(CC)c3ccc(C(=O)Nc4cccnc4C)cc3C=CC[C@H]2C1 (racemic) [Example 128, (7aS,9R,11aR)-11a-Ethyl-9-hydroxy-9-propyl-7a,8,9,10,11,11a-hexahydro-7H-dibenzo[a,c]cycloheptene-3-carboxylic acid (2-methyl-pyridin-3-yl)-amide compound with (7aR,9S,11aS)-11a-ethyl-9-hydroxy-9-propyl-7a,8,9,10,11,11a-hexahydro-7H-dibenzo[a,c]cycloheptene-3-carboxylic acid (2-methyl-pyridin-3-yl)-amide] | < 100
CC[C@@]12CC[C@](O)(c3ccccc3)C[C@@H]1CCOc1cc(C(=O)Nc3cccnc3C)ccc12 (racemic) [Example 134, (7aS,9R,11aR)-11a-Ethyl-9-hydroxy-N-(2-methylpyridin-3-yl)-9-phenyl-6,7,7a,8,9,10,11,11a-octahydrodibenzo[b,d]oxepine-3-carboxamide; compound with (7aR,9S,11aS)-11a-ethyl-9-hydroxy-N-(2-methylpyridin-3-yl)-9-phenyl-6,7,7a,8,9,10,11,11a-octahydrodibenzo[b,d]oxepine-3-carboxamide] | < 100
CC[C@@]12C[C@@H](O)[C@](O)(c3ccccc3)C[C@@H]1CCOc1cc(C(=O)Nc3cccnc3C)ccc12 (racemic) [Example 135, (7aS,9R,10R,11aR)-11a-Ethyl-9,10-dihydroxy-N-(2-methylpyridin-3-yl)-9-phenyl-6,7,7a,8,9,10,11,11a-octahydrodibenzo[b,d]oxepine-3-carboxamide; compound with (7aR,9S,10S,11aS)-11a-ethyl-9,10-dihydroxy-N-(2-methylpyridin-3-yl)-9-phenyl-6,7,7a,8,9,10,11,11a-octahydrodibenzo[b,d]oxepine-3-carboxamide] | 100 to 1000
CCC[C@@]1(O)CC[C@@]2(CC)c3ccc(C(=O)Nc4cccnc4C)cc3COC[C@H]2C1 (racemic) [Example 136, (7aS,9R,11aR)-11a-Ethyl-9-propyl-9-hydroxy-N-(2-methylpyridin-3-yl)-5,7,7a,8,9,10,11,11a-octahydrodibenzo[c,e]oxepine-3-carboxamide; compound with (7aR,9S,11aS)-11a-ethyl-9-propyl-9-hydroxy-N-(2-methylpyridin-3-yl)-5,7,7a,8,9,10,11,11a-octahydrodibenzo[c,e]oxepine-3-carboxamide] | < 100

Further lines, results first:

IC50 [nM] | SMILES
< 100 | CCOC[C@@]1(O)CC[C@@]2(Cc3ccccc3)c3ccc(C(=O)Nc4cccnc4C)cc3CCC[C@H]2C1 (racemic) [Example 33, (7aS,9R,11aS)-11a-Benzyl-9-ethoxymethyl-9-hydroxy-6,7,7a,8,9,10,11,11a-octahydro-5H-dibenzo[a,c]cycloheptene-3-carboxylic acid (2-methyl-pyridin-3-yl)-amide; compound with (7aR,9S,11aR)-11a-benzyl-9-ethoxymethyl-9-hydroxy-6,7,7a,8,9,10,11,11a-octahydro-5H-dibenzo[a,c]cycloheptene-3-carboxylic acid (2-methyl-pyridin-3-yl)-amide]
> 10000 | O=C1CCCC[C@H]2CC3(CC[C@@]12Cc1ccccc1)OCCO3 (racemic) [Example 37, (4aS,9aS)-4a-benzyloctahydrospiro[benzo[7]annulene-2,2′-[1,3]dioxolan]-5(1H)-one; compound with (4aR,9aR)-4a-benzyloctahydrospiro[benzo[7]annulene-2,2′-[1,3]dioxolan]-5(1H)-one]
< 100 | CCC[C@@]1(O)CC[C@@]2(CC(F)(F)F)c3ccc(C(=O)Nc4cccnc4C)cc3CCC[C@H]2C1 (racemic) [Example 52]
< 100 | Cc1ncccc1NC(=O)c1ccc2c(c1)CCC[C@H]1C[C@@](O)(CC#N)CC[C@@]21Cc1ccccc1 (racemic) [Example 65]
< 100 | Cc1ncccc1NC(=O)c1ccc2c(c1)CCC[C@H]1C[C@@](O)(COCC(F)(F)F)CC[C@@]21Cc1ccccc1 (racemic) [Example 95]
< 100 | Cc1ncccc1NC(=O)c1ccc2c(c1)CCC[C@H]1C[C@@](O)(COC3COC3)CC[C@@]21Cc1ccccc1 (racemic) [Example 96]
< 100 | CCCOC[C@@]1(O)CC[C@@]2(Cc3ccccc3)c3ccc(C(=O)Nc4cccnc4C)cc3CCC[C@H]2C1 (racemic) [Example 101]
< 100 | Cc1ncccc1NC(=O)c1ccc2c(c1)CCC[C@H]1C[C@@](O)(COc3ccccc3)CC[C@@]21Cc1ccccc1 (racemic) [Example 103]
< 100 | Cc1ncccc1NC(=O)c1ccc2c(c1)CCC[C@H]1C[C@@](O)(COCCS(C)(=O)=O)CC[C@@]21Cc1ccccc1 (racemic) [Example 105]
< 100 | CCC[C@@]1(O)CC[C@@]2(CC)c3ccc(C(=O)Nc4cccnc4C)cc3OCC[C@H]2C1 (racemic) [Example 119, (7aS,9R,11aR)-11a-Ethyl-9-hydroxy-N-(2-methylpyridin-3-yl)-9-propyl-6,7,7a,8,9,10,11,11a-octahydrodibenzo[b,d]oxepine-3-carboxamide; compound with (7aR,9S,11aS)-11a-ethyl-9-hydroxy-N-(2-methylpyridin-3-yl)-9-propyl-6,7,7a,8,9,10,11,11a-octahydrodibenzo[b,d]oxepine-3-carboxamide]
